Legend:
[1] = tested on: natural pigmentation of the tail of SKH HR2 mice; test: Depigmenting activity on natural pigmentation, tail of non-irradiated SKH HR2 mice (clinical pigmentation score); assay type: in vivo; conditions: non-irradiated SKH HR2 mouse tail, hydroquinone 3%, adapalene 0.1% in acetone, topical, 5 days per week for 8 weeks, score 0 to -4
Experimental: The depigmenting activity is measured on the natural pigmentation after application of the test product to the tail of non-irradiated animals.
The treatment is carried out for 5 days per week for 8 weeks. […] On the days for irradiation, the treatment is applied after irradiation.
The evaluation is made by different clinical observations: once per week before irradiation, the pigmentation is evaluated by virtue of a score on a scale from 0 to 4. The distribution of the scores is the following: • −0: natural pigmentation • depigmentation scale: scores −1 to −4 • −1: light depigmentation • −2: moderate depigmentation • −3: marked depigmentation • −4: total depigmentation • pigmentation scale: scores 1 to 4 • 1: light pigmentation • 2: moderate pigmentation • 3: marked pigmentation • 4: intense pigmentation

[2] = tested on: UV-induced pigmentation of the tail of SKH HR2 mice; conditions: SKH HR2 mouse tail irradiated with UV-B 90 mJ/cm^2 3 times per week for 8 weeks; hydroquinone 3%, adapalene 0.1% topical; score 1 to 4
Experimental: The depigmenting activity is measured on the natural pigmentation after application of the test product to the tail of non-irradiated animals. The anti-pigmenting activity is measured by the inhibition of the induction of the UV-induced pigmentation: the test product is applied to the tail of animals irradiated with UV-B. The treatment is carried out for 5 days per week for 8 weeks. […] On the days for irradiation, the treatment is applied after irradiation. The animals are irradiated 3 times per week for 8 weeks (Monday, Wednesday, Friday) at the dose of 90 mJ/cm^2 of UV-B. The evaluation is made by different clinical observations: once per week before irradiation, the pigmentation is evaluated by virtue of a score on a scale from 0 to 4. The distribution of the scores is the following: • −0: natural pigmentation • depigmentation scale: scores −1 to −4 • −1: light depigmentation • −2: moderate depigmentation • −3: marked depigmentation • −4: total depigmentation • pigmentation scale: scores 1 to 4 • 1: light pigmentation • 2: moderate pigmentation • 3: marked pigmentation • 4: intense pigmentation

COc1ccc(-c2ccc3cc(C(=O)O)ccc3c2)cc1C12CC3CC(CC(C3)C1)C2 [Adapalene, 6-[3-(1-adamantyl)-4-methoxyphenyl]-2-naphthanoic acid]
Depigmenting activity (effect on natural pigmentation) [1]: does not modify the natural pigmentation
Depigmenting activity (effect on natural pigmentation) ([1]; listed as adapalene): no depigmenting activity

Oc1ccc(O)cc1 [hydroquinone]
Depigmenting activity (effect on natural pigmentation) [1]: statistically significant depigmentation at the end of the study
Anti-pigmenting activity (inhibition of UV-B-induced pigmentation) [2]: anti-pigmenting effect at the 6th and at the 7th week (D50) which becomes less marked at the end of the study

— patent US20050163731A1, “Skin depigmenting compositions comprising adapalene and at least one depigmenting active agent” (GALDERMA RESEARCH & DEVELOPMENT, S.N.C., priority 2002, published 2005)
